{"source": "patent US9988371B2", "about": "“Benzimidazole analogues and related methods” (The Arizona Board of Regents, on Behalf of the University …, priority 2014, dated 2018)", "key": {"SRC": {"biological_target": "T1, SRC (Homo sapiens, UniProt P12931)", "T1 construct": "purchased KINOMEscan", "assay": "KINOMEscan kinase panel", "format": "binding", "details": "50 nM", "protocol": "(§1) Pz-1 was exceptionally potent on RET and all tested RET mutants including gatekeeper mutants RET/V804M at less than 1 nM (FIGS. 1-3). The RET biochemical assay described herein was not suitable to determine activity of inhibitors having an IC50 of less than 1 nM, as the concentration of the RET enzyme in the assay was 2 nM. An intermediate compound was therefore used for the kinetics studies. […] Pz-1 was screened at concentration of 50 nM against 91 kinases in KINOMEscan, representing a diversity of each Kinome cluster. The kinase assays in KINOMEScan were more sensitive than the biochemical assays described above."}, "FYN": {"biological_target": "T2, FYN (Homo sapiens, UniProt P06241)", "T2 construct": "purchased KINOMEscan", "assay": "KINOMEscan kinase panel", "format": "binding", "details": "50 nM", "protocol": "as §1"}, "TRKC": {"biological_target": "T3, TRKC (Homo sapiens, UniProt Q16288)", "T3 construct": "purchased KINOMEscan", "T3 sequence (Q16288 32-839)": "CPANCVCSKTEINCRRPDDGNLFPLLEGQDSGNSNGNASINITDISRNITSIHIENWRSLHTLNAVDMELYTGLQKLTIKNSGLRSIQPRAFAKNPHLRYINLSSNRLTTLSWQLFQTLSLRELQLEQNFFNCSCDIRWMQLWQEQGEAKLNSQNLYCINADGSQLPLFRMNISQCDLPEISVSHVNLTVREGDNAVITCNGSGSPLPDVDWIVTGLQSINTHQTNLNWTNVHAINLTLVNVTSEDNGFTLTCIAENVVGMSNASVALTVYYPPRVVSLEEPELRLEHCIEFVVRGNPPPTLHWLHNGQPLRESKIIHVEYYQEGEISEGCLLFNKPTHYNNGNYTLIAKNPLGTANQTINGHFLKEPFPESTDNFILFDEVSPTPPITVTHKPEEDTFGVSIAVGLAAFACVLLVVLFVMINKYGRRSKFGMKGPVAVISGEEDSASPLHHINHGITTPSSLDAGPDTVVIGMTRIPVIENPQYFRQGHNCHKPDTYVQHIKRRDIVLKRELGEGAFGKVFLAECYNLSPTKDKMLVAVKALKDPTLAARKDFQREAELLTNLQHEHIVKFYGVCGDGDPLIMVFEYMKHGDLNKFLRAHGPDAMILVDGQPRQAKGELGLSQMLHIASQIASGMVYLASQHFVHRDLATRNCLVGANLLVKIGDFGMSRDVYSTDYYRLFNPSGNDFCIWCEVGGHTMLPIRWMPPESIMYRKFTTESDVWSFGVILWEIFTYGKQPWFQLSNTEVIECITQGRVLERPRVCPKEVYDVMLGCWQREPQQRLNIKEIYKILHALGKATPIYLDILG", "assay": "KINOMEscan kinase panel", "format": "binding", "details": "50 nM", "protocol": "as §1"}, "GKA": {"system": "GKA", "assay": "KINOMEscan kinase panel", "format": "binding", "details": "50 nM", "protocol": "as §1"}, "TRKB": {"biological_target": "T4, TRKB (Homo sapiens, UniProt Q16620)", "T4 construct": "purchased KINOMEscan", "T4 sequence (Q16620 32-822)": "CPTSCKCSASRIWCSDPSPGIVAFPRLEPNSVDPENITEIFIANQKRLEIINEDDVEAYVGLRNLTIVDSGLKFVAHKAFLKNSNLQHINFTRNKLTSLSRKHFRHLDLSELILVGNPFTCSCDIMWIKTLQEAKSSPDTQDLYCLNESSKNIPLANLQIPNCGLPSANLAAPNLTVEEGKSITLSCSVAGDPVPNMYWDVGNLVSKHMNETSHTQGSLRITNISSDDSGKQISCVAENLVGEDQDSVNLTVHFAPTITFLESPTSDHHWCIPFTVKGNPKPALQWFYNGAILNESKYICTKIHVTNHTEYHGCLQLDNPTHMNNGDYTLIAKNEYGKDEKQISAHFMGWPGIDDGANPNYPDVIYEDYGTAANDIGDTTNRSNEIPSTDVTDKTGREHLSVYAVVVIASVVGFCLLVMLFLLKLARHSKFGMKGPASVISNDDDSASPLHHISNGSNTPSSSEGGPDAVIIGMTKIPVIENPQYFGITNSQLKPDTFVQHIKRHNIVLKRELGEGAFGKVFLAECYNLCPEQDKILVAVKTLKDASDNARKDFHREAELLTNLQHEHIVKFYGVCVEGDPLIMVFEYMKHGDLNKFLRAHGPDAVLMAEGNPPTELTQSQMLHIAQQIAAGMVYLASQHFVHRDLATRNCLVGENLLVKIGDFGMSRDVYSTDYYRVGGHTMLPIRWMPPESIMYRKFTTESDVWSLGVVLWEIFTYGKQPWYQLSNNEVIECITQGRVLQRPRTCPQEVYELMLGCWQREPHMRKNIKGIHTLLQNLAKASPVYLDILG", "assay": "KINOMEscan kinase panel", "format": "binding", "details": "50 nM", "protocol": "as §1"}, "[1]": {"biological_target": "gatekeeper mutant RETV804M (Homo sapiens, UniProt P07949, V804M)", "sequence (P07949 29-1114 V804M)": "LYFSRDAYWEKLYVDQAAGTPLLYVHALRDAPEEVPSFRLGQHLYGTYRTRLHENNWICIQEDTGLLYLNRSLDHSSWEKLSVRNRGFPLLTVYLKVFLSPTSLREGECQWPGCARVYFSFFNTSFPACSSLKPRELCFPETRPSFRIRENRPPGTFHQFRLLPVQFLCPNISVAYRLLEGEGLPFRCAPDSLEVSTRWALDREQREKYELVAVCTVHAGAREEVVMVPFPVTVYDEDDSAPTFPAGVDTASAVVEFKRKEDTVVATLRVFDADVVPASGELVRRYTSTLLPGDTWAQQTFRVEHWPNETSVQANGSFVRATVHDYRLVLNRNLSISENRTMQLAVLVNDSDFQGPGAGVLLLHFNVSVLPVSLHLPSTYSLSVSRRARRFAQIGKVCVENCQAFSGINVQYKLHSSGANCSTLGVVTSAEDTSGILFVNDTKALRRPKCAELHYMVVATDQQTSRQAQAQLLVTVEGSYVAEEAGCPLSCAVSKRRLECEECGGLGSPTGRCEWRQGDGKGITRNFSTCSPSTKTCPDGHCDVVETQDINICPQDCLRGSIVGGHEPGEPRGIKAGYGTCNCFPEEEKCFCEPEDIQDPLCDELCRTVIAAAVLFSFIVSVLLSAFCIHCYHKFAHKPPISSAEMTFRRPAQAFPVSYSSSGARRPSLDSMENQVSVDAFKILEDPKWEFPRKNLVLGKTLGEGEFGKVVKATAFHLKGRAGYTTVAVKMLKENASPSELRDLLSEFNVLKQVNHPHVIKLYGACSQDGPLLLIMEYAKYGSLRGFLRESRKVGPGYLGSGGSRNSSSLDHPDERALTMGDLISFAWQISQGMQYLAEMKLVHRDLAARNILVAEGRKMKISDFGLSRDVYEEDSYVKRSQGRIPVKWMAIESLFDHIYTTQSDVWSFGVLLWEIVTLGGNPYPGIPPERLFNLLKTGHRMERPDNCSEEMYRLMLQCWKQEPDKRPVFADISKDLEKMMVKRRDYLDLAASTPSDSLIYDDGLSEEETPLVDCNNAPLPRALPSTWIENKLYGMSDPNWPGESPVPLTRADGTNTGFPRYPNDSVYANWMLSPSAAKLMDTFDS", "assay": "RET/V804M kinase assay", "details": "biochemical assay; exact potency beyond measurable limit", "protocol": "Suitable screening assays for RET and VEGFR2 small molecule kinase inhibitors (from a kinase-directed fragment (KDF) library) were established. The RET kinase assay utilizes an EZ Reader Electrophoresis Mobility Chip Instrument (Caliper Life Science). In the assay, 2 nM recombinant RET enzyme (Invitrogen) is pre-incubated with a small molecule inhibitor or control buffer for 30 min to allow the Type-II kinase inhibitor to trap the DFG-out conformation to which the inhibitors bind. This class of inhibitors is indirectly competitive with ATP, and slow binding kinetics (low kd) allow the inhibitors to appear non-competitive and pseudo-irreversible in nature. Because of the non-competitive nature of these inhibitors, a more biologically relevant concentration of ATP substrate (200 μM) was incorporated in this assay. After 30 min of pre-incubation, a substrate mix containing […], 20 mM MgCl2 and 1.5 μM fluorescently labeled RET substrate peptide (Caliper LS, peptide 22; Perkin Elmer, USA) was added. The conversion level of the RET substrate peptide was then determined utilizing the EZ Reader instrument. Similarly, VEGFR2 and RET/V804M kinase assays have also been established using the same peptide substrate."}}}
{"smiles": "Cn1cc(-c2ccc3c(c2)ncn3-c2ccc(CC(=O)Nc3cc(C(C)(C)C)on3)cc2)cn1", "note": "[Pz-1, N-(5-(tert-butyl)isoxazol-3-yl)-2-(4-(5-(1-methyl-1H-pyrazol-4-yl)-1H-benzo[d]imidazol-1-yl)phenyl)acetamide]", "values": [{"measurement": "inhibition at 0.05 µM", "setting": "SRC", "value": "~90", "unit": "%"}, {"measurement": "inhibition at 0.05 µM", "setting": "FYN", "value": "~90", "unit": "%"}, {"measurement": "inhibition at 0.05 µM", "setting": "TRKC", "value": "~90", "unit": "%"}, {"measurement": "inhibition of GKA", "setting": "GKA", "value": "~90", "unit": "%"}, {"measurement": "inhibition at 0.05 µM", "setting": "TRKB", "value": "~90", "unit": "%"}, {"measurement": "IC50", "setting": "[1]", "value": "< 1", "unit": "nM"}]}
